Columns and labels:
Experiment in all cases: relative viability (nuclei count vs DMSO), 5 days (fraction); higher = more cells survive
[1] = system: A-427
How it was run: (§1)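 For relative viability, nuclei counts in treated wells were divided by those in vehicle wells. Lung cancer cell lines had been pin-tool dosed in 1536-well plates the day after seeding and cultured for 5 days, then fixed and stained in one step (final 0.05% Triton X-100, 1% formaldehyde, 1 ug/ml Hoechst) and imaged at 4×. Doses were one drug alone or a fixed anchor-drug dose plus five library-drug doses (not always all listed) in √10 steps, and values are duplicate-plate medians.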

[2] = system: COR-L 105
How it was run: as §1

[3] = system: EPLC-272H
How it was run: as §1

[4] = system: HCC-366
How it was run: as §1

[5] = system: HCC-78
How it was run: as §1

[6] = system: HOP-62
How it was run: as §1

[7] = system: LC-2-ad
How it was run: as §1

[8] = system: LCLC-97TM1
How it was run: as §1

[9] = system: LU99A
How it was run: as §1

[10] = system: LXF-289
How it was run: as §1

[11] = system: NCI-H1755
How it was run: as §1

[12] = system: NCI-H1792
How it was run: as §1

[13] = system: NCI-H1793
How it was run: as §1

[14] = system: NCI-H1915
How it was run: as §1

[15] = system: NCI-H1944
How it was run: as §1

[16] = system: NCI-H1975
How it was run: as §1

[17] = system: NCI-H2085
How it was run: as §1

[18] = system: NCI-H358
How it was run: as §1

[19] = system: NCI-H460
How it was run: as §1

[20] = system: SK-LU-1
How it was run: as §1

[21] = system: UMC-11
How it was run: as §1

Clc1ccc(Nc2nnc(Cc3ccncc3)c3ccccc23)cc1 [Vatalanib] + C[C@]1(O)C[C@@H](c2nc(-c3ccc4ccc(-c5ccccc5)nc4c3)c3c(N)nccn32)C1 [Linsitinib] (partner 1 µM) was tested, and the relative viability ([1]; first compound 0.04 µM) was 1.15, the relative viability ([1]; first compound 0.1265 µM) was 1.1 and the relative viability ([1]; first compound 0.4 µM) was 1.13. It also gave a relative viability ([1]; first compound 1.265 µM) of 1.06, a relative viability ([1]; first compound 4 µM) of 1.1 and a relative viability ([2]; first compound 0.04 µM) of 0.835. For the same molecule, the relative viability ([2]; first compound 0.1265 µM) was 0.87, the relative viability ([2]; first compound 0.4 µM) was 1.12 and the relative viability ([2]; first compound 1.265 µM) was 0.772. The relative viability ([2]; first compound 4 µM) was 0.941, the relative viability ([3]; first compound 0.04 µM) was 1.2 and the relative viability ([3]; first compound 0.1265 µM) was 1.19. The relative viability ([3]; first compound 0.4 µM) was 1.27, the relative viability ([3]; first compound 1.265 µM) was 1.18 and the relative viability ([3]; first compound 4 µM) was 1.31. The relative viability ([4]; first compound 0.04 µM) was 0.722, the relative viability ([4]; first compound 0.1265 µM) was 0.456 and the relative viability ([4]; first compound 0.4 µM) was 0.725. It also gave a relative viability ([4]; first compound 1.265 µM) of 0.542, a relative viability ([4]; first compound 4 µM) of 0.609 and a relative viability ([5]; first compound 0.04 µM) of 0.507. It also gave a relative viability ([5]; first compound 0.1265 µM) of 0.467, a relative viability ([5]; first compound 0.4 µM) of 0.527 and a relative viability ([5]; first compound 4 µM) of 0.448. For the same molecule, the relative viability ([6]; first compound 0.04 µM) was 0.785, the relative viability ([6]; first compound 0.4 µM) was 1.02 and the relative viability ([6]; first compound 1.265 µM) was 0.922. It also gave a relative viability ([6]; first compound 4 µM) of 0.876, a relative viability ([7]; first compound 0.04 µM) of 0.916 and a relative viability ([7]; first compound 0.1265 µM) of 0.799. The relative viability ([7]; first compound 0.4 µM) was 0.971, the relative viability ([7]; first compound 1.265 µM) was 0.841 and the relative viability ([7]; first compound 4 µM) was 0.883. For the same molecule, the relative viability ([8]; first compound 0.04 µM) was 0.183, the relative viability ([8]; first compound 0.1265 µM) was 0.17 and the relative viability ([8]; first compound 0.4 µM) was 0.189. It also gave a relative viability ([8]; first compound 1.265 µM) of 0.159, a relative viability ([8]; first compound 4 µM) of 0.179 and a relative viability ([9]; first compound 0.04 µM) of 0.545. For the same molecule, the relative viability ([9]; first compound 0.1265 µM) was 0.585, the relative viability ([9]; first compound 0.4 µM) was 0.558 and the relative viability ([9]; first compound 1.265 µM) was 0.534. For the same molecule, the relative viability ([9]; first compound 4 µM) was 0.49, the relative viability ([10]; first compound 0.04 µM) was 1.04 and the relative viability ([10]; first compound 0.1265 µM) was 0.947. The relative viability ([10]; first compound 0.4 µM) was 0.957, the relative viability ([10]; first compound 1.265 µM) was 0.888 and the relative viability ([10]; first compound 4 µM) was 0.919. The relative viability ([11]; first compound 0.04 µM) was 0.984, the relative viability ([11]; first compound 0.1265 µM) was 1.04 and the relative viability ([11]; first compound 0.4 µM) was 0.995. For the same molecule, the relative viability ([11]; first compound 1.265 µM) was 0.991, the relative viability ([11]; first compound 4 µM) was 0.919 and the relative viability ([12]; first compound 0.04 µM) was 0.465. The relative viability ([12]; first compound 0.1265 µM) was 0.494, the relative viability ([12]; first compound 0.4 µM) was 0.506 and the relative viability ([12]; first compound 1.265 µM) was 0.493. The relative viability ([12]; first compound 4 µM) was 0.515, the relative viability ([13]; first compound 0.04 µM) was 0.857 and the relative viability ([13]; first compound 0.1265 µM) was 0.693. The relative viability ([13]; first compound 0.4 µM) was 0.816, the relative viability ([13]; first compound 1.265 µM) was 0.719 and the relative viability ([13]; first compound 4 µM) was 0.819. The relative viability ([14]; first compound 0.04 µM) was 1.06, the relative viability ([14]; first compound 0.1265 µM) was 1.09 and the relative viability ([14]; first compound 0.4 µM) was 1.09. It also gave a relative viability ([14]; first compound 1.265 µM) of 1.04, a relative viability ([14]; first compound 4 µM) of 1.09 and a relative viability ([15]; first compound 0.04 µM) of 1.11. The relative viability ([15]; first compound 0.1265 µM) was 0.997, the relative viability ([15]; first compound 0.4 µM) was 1.17 and the relative viability ([15]; first compound 1.265 µM) was 1.2. It also gave a relative viability ([15]; first compound 4 µM) of 1.23, a relative viability ([16]; first compound 0.04 µM) of 0.889 and a relative viability ([16]; first compound 0.1265 µM) of 0.92. It also gave a relative viability ([16]; first compound 0.4 µM) of 1.1, a relative viability ([16]; first compound 1.265 µM) of 0.834 and a relative viability ([16]; first compound 4 µM) of 0.86. The relative viability ([17]; first compound 0.04 µM) was 0.919, the relative viability ([17]; first compound 0.1265 µM) was 0.974 and the relative viability ([17]; first compound 0.4 µM) was 1.05. It also gave a relative viability ([17]; first compound 1.265 µM) of 0.846, a relative viability ([17]; first compound 4 µM) of 0.886 and a relative viability ([18]; first compound 0.04 µM) of 0.898. For the same molecule, the relative viability ([18]; first compound 0.1265 µM) was 0.718, the relative viability ([18]; first compound 0.4 µM) was 0.917 and the relative viability ([18]; first compound 1.265 µM) was 0.699. For the same molecule, the relative viability ([18]; first compound 4 µM) was 0.578, the relative viability ([19]; first compound 0.04 µM) was 1.01 and the relative viability ([19]; first compound 0.1265 µM) was 0.684. The relative viability ([19]; first compound 0.4 µM) was 0.732, the relative viability ([19]; first compound 1.265 µM) was 0.699 and the relative viability ([19]; first compound 4 µM) was 0.711. It also gave a relative viability ([20]; first compound 0.04 µM) of 1.45, a relative viability ([20]; first compound 0.1265 µM) of 1.13 and a relative viability ([20]; first compound 0.4 µM) of 1.28. The relative viability ([20]; first compound 1.265 µM) was 1.04, the relative viability ([20]; first compound 4 µM) was 1.03 and the relative viability ([21]; first compound 0.04 µM) was 1.03. For the same molecule, the relative viability ([21]; first compound 0.1265 µM) was 0.808, the relative viability ([21]; first compound 0.4 µM) was 1.01 and the relative viability ([21]; first compound 1.265 µM) was 1.04. For the same molecule, the relative viability ([21]; first compound 4 µM) was 0.987.
